Measurements taken from patent US20070292483A1, “REDUCING MUSCLE SORENESS WITH GLUCOSAMINE COMPOSITIONS” (Stokely-Van Camp, Inc., priority 2006, published 2007).

Assay: storage study of relatively neutral pH beverage compositions containing glucosamine
Type: physicochemical
Experimental: Special considerations in packaging, shipping, and or formulations may also be considered when delivering a targeted amount of glucosamine in the beverage compositions. As an example, shake-type beverages, such as the beverage composition provided in Table 3, are generally formulated to have a relatively neutral pH value.
Such a formulation was determined to deliver 1,500 mg of glucosamine based on results from a storage study. During the study, in which such beverages were stored for a period of 12 months at ambient (73 degrees Fahrenheit) temperature, it was determined that approximately 77% of glucosamine originally present had degraded during a 12 month storage period. Thus, information regarding the average shelf-life and/or delivery mechanisms for specific products may be utilized when formulating the beverage compositions. Such factors may include the temperature, time to consumption, packaging the compositions are stored within, among others.

SMILES | degradation rate in beverage (formulated in beverages having neutral pHs (shake-type)) | glucosamine originally present that had degraded during storage (relatively neutral pH beverage, around about 20 mg/ml glucosamine, stored 12 months at ambient (73 degrees Fahrenheit) temperature)
Cl.N[C@H]1C(O)O[C@H](CO)[C@@H](O)[C@@H]1O (some centres unmarked) [Glucosamine hydrochloride, glucosamine hydrochloride] | degrades at a quickened rate | 
N[C@H]1C(O)O[C@H](CO)[C@@H](O)[C@@H]1O (some centres unmarked) [glucosamine] |  | approximately 77%
